# Measured values reported in patent US20220015362A1, “COMPOSITIONS COMPRISING HALAUXIFEN AND OTHER HERBICIDES AND METHODS THEREOF” (DOW AGROSCIENCES LLC, priority 2018, published 2022).
# Test system: ERISU (Conyza sumatrensis, Sumatran fleabane)
# Assay: Greenhouse post-emergence foliar weed control trial, visual injury score 0-100 percent
# Assay type: in vivo
# Conditions: 400 gai/ha
# Description: Results in Examples are greenhouse trial results.
# Seeds or nutlets of the desired test plant species were planted in a soil matrix prepared by mixing a loam or sandy loam soil (e.g., 28.6 percent silt, 18.8 percent clay, and 52.6 percent sand, with a pH of about 5.8 and an organic matter content of about 1.8 percent) and calcareous grit in an 80 to 20 ratio. The soil matrix was contained in plastic pots with a volume of 1 quart and a surface area of 83.6 cm2. When required to ensure good germination and healthy plants, a fungicide treatment and/or other chemical or physical treatment was applied. The plants were grown for 8-22 days in a greenhouse with an approximate 14 h photoperiod which was maintained at about 29° C. during the day and 26° C. during the night. Nutrients (Peters Excel® 15-5-155-Ca 2-Mg and iron chelate) were applied in the irrigation solution as needed and water was added on a regular basis. Supplemental lighting was provided with overhead metal halide 1000-Watt lamps as necessary. The plants were employed for testing when they reached the first through fourth true leaf stage.
# Treatments comprised of the acid or esters of halauxifen-methyl (methyl 4-amino-3-chloro-6-(4-chloro-2-fluoro-3-methoxyphenyl)picolinate), each formulated as an SC (suspension concentrate), and various herbicidal components alone and in combination. A form of the compound of Formula I were applied on an acid equivalent basis.
# Treatment requirements were calculated based upon the rates being tested, the concentration of active ingredient or acid equivalent in the formulation, and a 12 mL application volume at a rate of 187 L/ha.
# For treatments comprised of formulated and technical compounds, weighed amounts of the technical materials were placed individually in 25 mL glass vials and dissolved in a volume of 97:3 v/v acetone/DMSO to obtain 12× stock solutions, and measured amounts of the formulated compounds were placed individually in 25 mL glass vials and diluted in a volume of 1.5% (v/v) crop oil concentrate or water to obtain 12× stock solutions. […] As required, additional water and/or 97:3 v/v acetone/DMSO was added to individual application solutions so that the final acetone and DMSO concentrations of the application solutions being compared were 8.1% and 0.25%, respectively.
# All stock solutions and applications solutions were visually inspected for compound compatibility prior to application. Spray solutions were applied to the plant material with an overhead Mandel track sprayer equipped with an 8002E nozzle calibrated to deliver 187 L/ha over an application area of 0.503 m2 at a spray height of 18 to 20 inches (46 to 50 cm) above average plant canopy height. Control plants were sprayed in the same manner with the solvent blank.
# The treated plants and control plants were placed in a greenhouse as described above and watered by sub-irrigation to prevent wash-off of the test compounds. […]
# Table 1 illustrates weed control for foliar applications of compositions comprising halauxifen-methyl+2,4-D-dimethylammonium (2,4-D-DMA)+paraquat on various broadleaf weeds. […] The compositions disclosed herein can be used in burndown and fallow crop applications or in herbicide tolerant crops. These compositions can be used for broad-spectrum control of broadleaf weeds including, but not limited to, ALS, auxinic, HPPD, PPO, glufosinate and glyphosate resistant broadleaf weeds. The compositions disclosed herein can have utility in AAD1 and AAD12 monocot and dicot crops whereby there is crop tolerance to all 3 modes of action, providing growers with a solution to control susceptible and resistant broadleaf weeds, as well as to delay the development of resistance by the use of 3 modes of action product. The compositions disclosed herein can be used in non-crop and R&P/IVM situations, post directed in perennial crops, and potentially across many crops where there is tolerance to all 3 modes of action.
smiles,measurement,setting,value
"C[n+]1ccc(-c2cc[n+](C)cc2)cc1 [paraquat, 1-methyl-4-(1-methylpyridin-1-ium-4-yl)pyridin-1-ium]",Chem 2 Actual Mean % Weed Control,"Trial 1, 17DAA",32.50%
same,Chem 2 Actual Mean % Weed Control,"Trial 1, 28DAA",52.50%
same,Chem 2 Actual Mean % Weed Control,"Trial 1, 43DAA",60.00%
same,Chem 2 Actual Mean % Weed Control,"Trial 2, 17DAA",52.50%
same,Chem 2 Actual Mean % Weed Control,"Trial 2, 28DAA",55.00%
same,Chem 2 Actual Mean % Weed Control,"Trial 2, 43DAA",65.00%
